Measured values as given in patent publication US20080085264A1, “METHODS FOR ENHANCING STEM CELL ENGRAFTMENT DURING TRANSPLANTATION” (priority 2003, published 2008).

Test system: BoyJ irradiated mice
Assay: Competitive repopulation assay
Format: in vivo, mouse
Details: six months post transplant, 5×10^5 or 2.5×10^5 donor cells vs 5×10^5 competitor BoyJ cells
Excerpt: Donor LDBM cells (5×10^5) from representative mice from each test group were transplanted into lethally irradiated BoyJ mice (expressing CD45.1) Quantitative contribution to chimerism was obtained 2-6 months post-transplantation in the same manner described for long-term engraftment assays.
Eight week old female recipient mice were lethally irradiated (1100 cGy split dose) prior to transplantation as previously described (Haneline L S, et al. Blood. 1999; 94:1-8). Limiting dilutions of donor LD BM cells (5×10^5, 2.5×10^5, 1.25×10^5, and 0.625×10^5 cells) from control C57Bl/6 mice, CD26-inhibitor treated LD BM cells, or untreated LD BM cells from CD26^−/− mice (all expressing CD45.2) are co-transplanted with a constant number (5×10^5) of pooled competitive BM cells from congenic BoyJ mice (expressing CD45.1), into BoyJ irradiated mice. To determine quantitatively the relative cell contribution to chimerism of each test cell population tail-vein blood samples were obtained post-transplantation each month for three months and CD45.1 and CD45.2 was measured by flow-cytometry. Cells were divided into CD26 inhibitor (either Diprotin A or Val-Pyr) treated or untreated groups obtained from normal C57BL/6 mice and untreated cells obtained from CD26^−/− mice. […]

Ile-Pro-Ile [Diprotin A]
donor contribution to chimerism: increased donor contribution to chimerism
